Data on 25 molecules can be found in patent US20140243302A1, “BRIDGED BICYCLIC COMPOUNDS FOR THE TREATMENT OF BACTERIAL INFECTIONS” (priority 2011, published 2014).

In brackets after ≈: the same amount, converted by molar mass.

In this test the test system is Staphylococcus aureus Smith. The test can be described thus: MIC assay, modified agar dilution (CLSI), S. aureus Smith. It counts as cell-based. The note with it: agar dilution, 35° C., 16-20 hr, lowest concentration that completely inhibited growth; for MIC: Staphylococcus aureus, read-out: S_aureus_Smith_WT_MIC. A digest of the protocol:
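Strains were spotted at about 1×10^4 CFU onto compound-containing Mueller Hinton agar (two-fold series, 128-0.001 μg/mL), horse blood 5% added for pneumococcus and enterococcus. MIC read after 16-20 hr at 35 °C, following a modified CLSI agar dilution method.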
In general terms: In agar dilution the substance is mixed into plates at graded concentrations.

In turn, `COc1cnc2ccc(=O)n(CC(O)C34CCC(NCc5ccc6c(n5)NC(=O)CO6)(CC3)CO4)c2c1` (single isomer, unassigned) [Example 54b, 6-(((1-(1-hydroxy-2-(7-methoxy-2-oxo-1,5-naphthyridin-1(2H)-yl)ethyl)-2-oxabicyclo[2.2.2]octan-4-yl)amino)methyl)-2H-pyrido[3,2-b][1,4]oxazin-3(4H)-one] displayed a S_aureus_Smith_WT_MIC of 0.0160 µg/mL.
In the case of `COc1ccc2ncc(F)c(CCC34CCC(NCc5cc6cc(F)ccc6n(C)c5=O)(CC3)CO4)c2n1` [Example 102, 6-Fluoro-3-((1-(2-(3-fluoro-6-methoxy-1,5-naphthyridin-4-yl)ethyl)-2-oxabicyclo[2.2.2]octan-4-ylamino)methyl)-1-methylquinolin-2(1H)-one], the MIC amounted to 2 µg/mL (≈ 3.84 µM).
For the molecule `COc1cc(C)c2ncc(F)c(CCC34CCC(NCc5ccc6c(n5)NC(=O)CO6)(CC3)CO4)c2c1` [Example 139, 6-((1-(2-(3-Fluoro-6-methoxy-8-methylquinolin-4-yl)ethyl)-2-oxabicyclo[2.2.2]octan-4-ylamino)methyl)-2H-pyrido[3,2-b][1,4]oxazin-3(4H)-one], the MIC was 0.063 µg/mL (≈ 0.124 µM).
As for `N[C@H]1C(=O)N[C@@H]1COc1ccc2ncc(F)c(CCC34CCC(NCc5ccc6c(n5)NC(=O)CO6)(CC3)CO4)c2n1` [Example 164, 6-((1-(2-(6-(((2S,3R)-3-Amino-4-oxoazetidin-2-yl)methoxy)-3-fluoro-1,5-naphthyridin-4-yl)ethyl)-2-oxabicyclo[2.2.2]octan-4-ylamino)methyl)-2H-pyrido[3,2-b][1,4]oxazin-3(4H)-one], the MIC came out at 0.5 µg/mL (≈ 0.866 µM).
For `COc1ccc2ncc(F)c(C(C)C(O)C34CCC(NCc5ccc6c(n5)NC(=O)CO6)(CC3)CO4)c2n1` (single isomer, unassigned) [Example 151b, 6-((1-(2-(3-Fluoro-6-methoxy-1,5-naphthyridin-4-yl)-1-hydroxypropyl)-2-oxabicyclo[2.2.2]octan-4-ylamino)methyl)-2H-pyrido[3,2-b][1,4]oxazin-3(4H)-one], the S_aureus_Smith_WT_MIC was 4.00 µg/mL.
With `COc1ccc2nccc(CCC34CCC(NCc5ccc6c(n5)NC(=O)CO6)(CC3)CO4)c2n1.Cl` [Example 17, 6-((1-(2-(6-Methoxy-1,5-naphthyridin-4-yl)ethyl)-2-oxabicyclo[2.2.2]octan-4-ylamino)methyl)-2H-pyrido[3,2-b][1,4]oxazin-3(4H)-one Hydrochloride], the MIC was 0.031 µg/mL.
With `COc1cnc2ncc(=O)n(CCC34CCC(NCc5ccc6c(n5)NC(=O)CO6)(CC3)CO4)c2c1` [Example 121, 6-(((1-(2-(7-Methoxy-2-oxopyrido[2,3-b]pyrazin-1(2H)-yl)ethyl)-2-oxabicyclo[2.2.2]octan-4-yl)amino)methyl)-2H-pyrido[3,2-b][1,4]oxazin-3(4H)-one], the MIC came to 0.016 µg/mL (≈ 0.0325 µM).
For the molecule `COc1ccc2ncc(Cl)c(OCC34CCC(NCc5ccc6c(n5)NC(=O)CO6)(CC3)CC4)c2n1` [Example 15, 6-((4-((3-Chloro-6-methoxy-1,5-naphthyridin-4-yloxy)methyl)bicyclo[2.2.2]octan-1-ylamino)methyl)-2H-pyrido[3,2-b][1,4]oxazin-3(4H)-one], the MIC worked out at 0.031 µg/mL (≈ 0.0608 µM).
As for `O=C1COc2ccc(CNC34CCC(CCn5c(=O)ccc6ncc(Cl)cc65)(CC3)OC4)nc2N1` [Example 129, 6-((1-(2-(7-Chloro-2-oxo-1,5-naphthyridin-1(2H)-yl)ethyl)-2-oxabicyclo[2.2.2]octan-4-ylamino)methyl)-2H-pyrido[3,2-b][1,4]oxazin-3(4H)-one], the MIC amounted to 0.063 µg/mL (≈ 0.127 µM).
Same read-out and setting: for `N[C@@H]1CO[C@@H]1COc1ccc2ncc(F)c(CCC34CCC(NCc5ccc6c(n5)NC(=O)CO6)(CC3)CO4)c2n1` [Example 184, 6-((1-(2-(6-(((2S,3R)-3-Aminooxetan-2-yl)methoxy)-3-fluoro-1,5-naphthyridin-4-yl)ethyl)-2-oxabicyclo[2.2.2]octan-4-ylamino)methyl)-2H-pyrido[3,2-b][1,4]oxazin-3(4H)-one] the value was 0.25 µg/mL (≈ 0.443 µM).
Turning to `COc1ccc2ccc(=O)n(CC(O)C34CCC(NCc5ccc6c(n5)NC(=O)CO6)(CC3)CO4)c2n1` (single isomer, unassigned) [Example 52b, 6-(((1-(1-Hydroxy-2-(7-methoxy-2-oxo-1,8-naphthyridin-1(2H)-yl)ethyl)-2-oxabicyclo[2.2.2]octan-4-yl)amino)methyl)-2H-pyrido[3,2-b][1,4]oxazin-3(4H)-one], the S_aureus_Smith_WT_MIC was found to be 0.0630 µg/mL.
As to `COc1ccc2ncc(F)c(CC(O)C34CCC(NCc5ccc6c(n5)OCCO6)(CC3)CO4)c2n1` (stereo not shown) [Example 147, 1-(4-((2,3-Dihydro-[1,4]dioxino[2,3-b]pyridin-6-yl)methylamino)-2-oxabicyclo[2.2.2]octan-1-yl)-2-(3-fluoro-6-methoxy-1,5-naphthyridin-4-yl)ethanol], the MIC amounted to 0.125 µg/mL (≈ 0.252 µM).
Regarding `NCC1(COc2ccc3ncc(F)c(CCC45CCC(NCc6ccc7c(n6)NC(=O)CO7)(CC4)CO5)c3n2)CC1` [Example 43, 6-((1-(2-(6-((1-(Aminomethyl)cyclopropyl)methoxy)-3-fluoro-1,5-naphthyridin-4-yl)ethyl)-2-oxabicyclo[2.2.2]octan-4-ylamino)methyl)-2H-pyrido[3,2-b][1,4]oxazin-3(4H)-one], the MIC worked out at 1 µg/mL (≈ 1.78 µM).
In the case of `COc1ccc2ccc(=O)n(CC(O)C34CCC(NCc5ccc6c(n5)NC(=O)CO6)(CC3)CO4)c2n1` (single isomer, unassigned) [Example 52a, 6-(((1-(1-Hydroxy-2-(7-methoxy-2-oxo-1,8-naphthyridin-1(2H)-yl)ethyl)-2-oxabicyclo[2.2.2]octan-4-yl)amino)methyl)-2H-pyrido[3,2-b][1,4]oxazin-3(4H)-one], the S_aureus_Smith_WT_MIC worked out at 0.0310 µg/mL.
For the molecule `CN(C)c1nc2c(CCC34CCC(NCc5ccc6c(n5)NC(=O)CO6)(CC3)CO4)ccnc2cc1F` [Example 154, 6-((1-(2-(6-(Dimethylamino)-7-fluoro-1,5-naphthyridin-4-yl)ethyl)-2-oxabicyclo[2.2.2]octan-4-ylamino)methyl)-2H-pyrido[3,2-b][1,4]oxazin-3(4H)-one], the MIC turned out to be 1 µg/mL (≈ 1.97 µM).
Same read-out and setting: next, `CCOC(=O)c1csc(CNC23CCC(CCc4c(F)cnc5ccc(OC)nc45)(CC2)OC3)n1` [Example 86, Ethyl 2-(((1-(2-(3-Fluoro-6-methoxy-1,5-naphthyridin-4-yl)ethyl)-2-oxabicyclo[2.2.2]octan-4-yl)amino)methyl)thiazole-4-carboxylate]: 16 µg/mL (≈ 32 µM); `COc1ccc2c(n1)c(CCC13CCC(NCc4ccc5c(n4)NC(=O)CO5)(CC1)CO3)cc(=O)n2C` [Example 49, 6-(((1-(2-(6-Methoxy-1-methyl-2-oxo-1,2-dihydro-1,5-naphthyridin-4-yl)ethyl)-2-oxabicyclo[2.2.2]octan-4-yl)amino)methyl)-2H-pyrido[3,2-b][1,4]oxazin-3(4H)-one]: 1 µg/mL (≈ 1.98 µM); `COc1ccc2nccc(CCC34CCC(NCc5ccc6c(n5)NC(=O)CO6)(CC3)CC4)c2n1.Cl` [Example 1, 6-((4-(2-(6-Methoxy-1,5-naphthyridin-4-yl)ethyl)bicyclo[2.2.2]octan-1-ylamino)methyl)-2H-pyrido[3,2-b][1,4]oxazin-3(4H)-one Hydrochloride]: 0.031 µg/mL.
On the same count and under the same terms, for `COc1ccc2ncc(F)c(CC(OCCO)C34CCC(NCc5ccc6c(n5)NC(=O)CO6)(CC3)CO4)c2n1` (stereo not shown) [Example 167, 6-[({1-[2-(3-Fluoro-6-methoxy-1,5-naphthyridin-4-yl)-1-(2-hydroxyethoxy)ethyl]-2-oxabicyclo[2.2.2]oct-4-yl}amino)methyl]-2H-pyrido[3,2-b][1,4]oxazin-3(4H)-one] the value was 2 µg/mL (≈ 3.61 µM); for `COc1ccc2ncc(F)c(CCC34CCC(NCc5ccc6c(n5)NC(=NO)CO6)(CC3)CO4)c2n1` [Example 48, 6-((1-(2-(3-Fluoro-6-methoxy-1,5-naphthyridin-4-yl)ethyl)-2-oxabicyclo[2.2.2]octan-4-ylamino)methyl)-2H-pyrido[3,2-b][1,4]oxazin-3(4H)-one Oxime], 2 µg/mL (≈ 3.93 µM).
For the molecule `O=C1COc2ccc(CNC34CCC(CCN5C(=O)COc6ccc(Br)cc65)(CC3)OC4)nc2N1` [Example 203, 1-(2-(6-Bromo-3-oxo-2H-benzo[b][1,4]oxazin-4(3H)-yl)ethyl)-N-((3-oxo-3,4-dihydro-2H-pyrido[3,2-b][1,4]oxazin-6-yl)methyl)-2-oxabicyclo[2.2.2]octan-4-aminium chloride], the MIC is 0.25 µg/mL.
For the molecule `COc1ccc2ncc(F)c(CC(O)C34CCC(NCc5ccc6c(c5)OCCO6)(CC3)CO4)c2n1` (stereo not shown) [Example 172, 1-{4-[(2,3-Dihydro-1,4-benzodioxin-6-ylmethyl)amino]-2-oxabicyclo[2.2.2]oct-1-yl}-2-(3-fluoro-6-methoxy-1,5-naphthyridin-4-yl)ethanol], the MIC worked out at 0.031 µg/mL (≈ 0.0626 µM).
Still for that read-out and setting: for `Cc1ccc2ccc(=O)n(CCC34CCC(NCc5ccc6c(n5)NC(=O)CO6)(CC3)CO4)c2n1.Cl` [Example 111, 6-((1-(2-(7-Methyl-2-oxo-1,8-naphthyridin-1(2H)-yl)ethyl)-2-oxabicyclo[2.2.2]octan-4-ylamino)methyl)-2H-pyrido[3,2-b][1,4]oxazin-3(4H)-one Hydrochloride] the value was 0.125 µg/mL; for `NCC(O)COc1ccc2ncc(F)c(CCC34CCC(NCc5ccc6c(n5)NC(=O)CO6)(CC3)CO4)c2n1` (stereo not shown) [Example 165, 6-{[(1-{2-[6-(3-Amino-2-hydroxypropoxy)-3-fluoro-1,5-naphthyridin-4-yl]ethyl}-2-oxabicyclo[2.2.2]oct-4-yl)amino]methyl}-2H-pyrido[3,2-b][1,4]oxazin-3(4H)-one], 2 µg/mL (≈ 3.62 µM); for `COc1ccc2ncc(F)c(C[C@H](O)C34CCC(NCc5ccc6c(n5)NCCO6)(CC3)CO4)c2n1` [Example 206, (S)-6-(((1-(2-(3-Fluoro-6-methoxy-1,5-naphthyridin-4-yl)-1-hydroxyethyl)-2-oxabicyclo[2.2.2]octan-4-yl)ammonio)methyl)-3,4-dihydro-2H-pyrido[3,2-b][1,4]oxazin-4-ium chloride], 0.06 µg/mL.
